GI50 and TGI data for ten compounds are collected here from PubChem BioAssay (NCI).

Holding throughout (test): NCI-60 cell line screen, 48 h
The subject of assay [1] is IGROV1 ovarian.
For assay [2], the system named is DU-145 prostate.
Assay [3] concerns MDA-MB-435.
In assay [4] the test system is SR leukemia.
In assay [5] the test system is TK-10 renal.
The test system of assay [6] is HL-60(TB) leukemia.
In assay [7] the test system is HCT-15 colon.
In assay [8] the test system is OVCAR-8 ovarian.
The test system of assay [9] is 786-0 renal.
The test system of assay [10] is SF-295 CNS.

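Step 1: Grow cells in 96-well plates. Step 2: Expose to compound for 48 hours at 5 concentrations. Step 3: Interpolate endpoints linearly; if unreached, use highest concentration. At the GI50, growth is halved. TGI denotes the concentration required for complete inhibition of growth.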 Where only a bound is given, the exact number is not on record here.

Take `C#CCOc1cccc(-c2ncnc3cc(NC(=O)CCl)ccc23)c1`: the GI50 was 0.0612 µM in assay [1]; 1.16 µM in [2]; 0.993 µM in [3]; 0.0363 µM in assay [4]; 1.26 µM in assay [5]; 0.536 µM in assay [6]. Also, the GI50 is 0.0179 µM in assay [7], 0.168 µM in assay [8], 0.208 µM in assay [9] and 2.44 µM in [10]. Moreover, the TGI in assay [1] was 1.92 µM; in assay [2], 2.47 µM; in [3], 2.92 µM; in assay [4], more than 100 µM; in assay [5] it was 2.81 µM; in [6], 4.36 µM. The TGI in assay [7] came out at 1.71 µM; in assay [8], 6.59 µM; in assay [9], 2.26 µM; in assay [10], 9.25 µM.

As to `Nc1ccccc1C(=O)CC1OC(=O)c2ccccc21` (centres undefined), the TGI in [1], in assay [2], in [3], in [4], in assay [5] and in [6] was more than 100 µM each time. Also, the TGI in assay [7], in [8], in assay [9] and in assay [10] was more than 100 µM in each case.

On to `COc1ccc2c(C)cc(N/N=C/c3ccc(OC)c4ccccc34)nc2c1`, for which the TGI in [1] amounted to 29.3 µM; in [2], 16.4 µM; in assay [3], 24.1 µM; in assay [4] it was 22.3 µM; in [5], 31.8 µM; in assay [6], 49.3 µM. Also, the TGI in assay [7] came to 23.4 µM; in assay [8], 39.6 µM; in [9], 26.4 µM; in assay [10], 32 µM.

In the case of `Cc1ccc(-c2csc(/N=C3\C(=O)Nc4ccccc43)n2)cc1`, the GI50 in assay [1] was 1.53 µM; in assay [2] it was 2.16 µM; in assay [3] it was 1.38 µM; in assay [5] it was 2.52 µM; in assay [7] it was 2.37 µM; in assay [8] it was 2.47 µM. For the same compound, the GI50 was 1.63 µM in [9] and 1.32 µM in assay [10]. The TGI in assay [1] worked out at 4.55 µM; in [2], 5.99 µM; in [3], 2.87 µM; in assay [5], 5.15 µM; in assay [7] it was 10.4 µM; in [8], 6.9 µM. In addition, the TGI came out at 3.28 µM in assay [9] and 2.87 µM in [10].

For `COc1cc(NC(N)=NCCC(C)(C)Oc2ccc(C(F)(F)F)cc2)ncc1C#N`, the GI50 is 1.8 µM in assay [1]; 1.72 µM in [2]; 1.73 µM in assay [3]; 1.54 µM in [5]; 1.65 µM in assay [7]; 1.79 µM in assay [8]. The GI50 in assay [9] was 1.61 µM; in assay [10], 1.57 µM. The TGI came to 3.48 µM in assay [1]; 3.12 µM in assay [2]; 3.17 µM in assay [3]; 2.91 µM in assay [5]; 3.07 µM in [7]; 3.54 µM in [8]. Moreover, the results for the TGI in [9] and in [10] were 3.14 µM and 2.99 µM, respectively.

With `Clc1nc(Cl)c2ncn(Cc3cccc(Cn4cnc5c(Cl)nc(Cl)nc54)c3)c2n1`, the GI50 in [1] is 7.33 µM; in assay [2], 1.72 µM; in assay [3], 7.29 µM; in [4] it was 2.94 µM; in assay [5], 2.46 µM; in assay [6] it was 2.9 µM. Besides, the GI50 in [7] was 5.78 µM; in [8], 4.67 µM; in assay [9], 12.3 µM; in assay [10] it was 16.5 µM. Moreover, the TGI in [1] worked out at 20.2 µM; in [2], 3.09 µM; in assay [3], 22.2 µM; in assay [4] it was 8.41 µM; in [5], 7.31 µM; in assay [6], 82.8 µM. For the same compound, the TGI in [7] amounted to 22.3 µM; in [8] it was 18.6 µM; in assay [9], 26.6 µM; in [10], 30.9 µM.

Turning to `FC(F)(F)c1nc2nc(Cl)c(Cl)nc2n1CCCN1CCOCC1`, the TGI in [1] was more than 100 µM; in assay [2], 63.2 µM; in [3] it was more than 100 µM; in assay [4], 33.9 µM; in assay [5], more than 100 µM; in [6] it was 40.3 µM. Further, the TGI in [7], in assay [8], in assay [9] and in assay [10] was more than 100 µM throughout.

Take `Cc1nc(SCC(=O)Nc2nc(-c3ccc(Cl)cc3)cs2)n(Nc2ccccc2)c1C`: the GI50 was 3.36 µM in assay [1]; 5.64 µM in [2]; 3.25 µM in [3]; 3.81 µM in [4]; 3.65 µM in assay [5]; 2.99 µM in assay [6]. For the same compound, the GI50 in [7] was 5.74 µM; in assay [8], 2.71 µM; in assay [9] it was 3.6 µM; in assay [10], 2.29 µM. The TGI in assay [1] was 20.6 µM; in assay [2], 18.7 µM; in assay [3], 21.8 µM; in assay [4], more than 100 µM; in [5], 13.8 µM; in assay [6] it was more than 100 µM. For the same compound, the TGI in assay [7] was 23.3 µM; in [8], 7.73 µM; in [9], 13.7 µM; in assay [10] it was 16.5 µM.

As for `Cc1ccc(S(=O)(=O)NC(=O)C2C(=O)CC3(CCCCC3)CC2=O)cc1`, the TGI is 71.1 µM in [1]; more than 100 µM in assay [2]; more than 100 µM in [3]; 62.1 µM in assay [5]; 65.8 µM in assay [6]; 62.4 µM in [7]. Further, the TGI in assay [8] is 87.1 µM; in assay [9], more than 100 µM; in assay [10], 67.1 µM.

With `COc1cc(OC)cc(N(CCNC(C)C)c2ccc3ncc(-c4cnn(C)c4)nc3c2)c1`, the GI50 in [1] was 3.02 µM; in assay [2] it was 5.29 µM; in [3], 5.73 µM; in assay [5], 2.81 µM; in assay [6], 7.37 µM; in assay [7] it was 3.34 µM. The GI50 was 4.75 µM in [8], 2.9 µM in assay [9] and 10.8 µM in assay [10]. Moreover, the TGI amounted to 11.1 µM in assay [1]; 17.9 µM in [2]; 19 µM in [3]; 12.1 µM in assay [5]; 22.7 µM in assay [6]; 13.5 µM in [7]. For the same compound, the TGI in assay [8] was determined as 18.9 µM; in assay [9], 13.6 µM; in assay [10], 25.1 µM.
